Laboratory results as given in patent US8673894B2 (Hoffmann-La Roche Inc., priority 2010, dated 2014).
Structures can show the parent of a compound that is named as a salt.

Legend:
[1] = target: T1, endogenous cellular BACE2 (Rattus norvegicus, UniProt Q6IE75); assay: Assay for BACE inhibition by measuring cellular TMEM27 cleavage; type: cell-based; details: INS-TMEM27 (INS1e-derived) cells, shed human TMEM27 in supernatant by ELISA
T1 construct: endogenous cellular BACE2 in the Ins1e rat cell line; endogenous in cells; host or cells: INS-TMEM27 (INS1e-derived rat insulinoma cell line with doxycycline-inducible full-length human TMEM27)
T1 sequence (Q6IE75 63-514): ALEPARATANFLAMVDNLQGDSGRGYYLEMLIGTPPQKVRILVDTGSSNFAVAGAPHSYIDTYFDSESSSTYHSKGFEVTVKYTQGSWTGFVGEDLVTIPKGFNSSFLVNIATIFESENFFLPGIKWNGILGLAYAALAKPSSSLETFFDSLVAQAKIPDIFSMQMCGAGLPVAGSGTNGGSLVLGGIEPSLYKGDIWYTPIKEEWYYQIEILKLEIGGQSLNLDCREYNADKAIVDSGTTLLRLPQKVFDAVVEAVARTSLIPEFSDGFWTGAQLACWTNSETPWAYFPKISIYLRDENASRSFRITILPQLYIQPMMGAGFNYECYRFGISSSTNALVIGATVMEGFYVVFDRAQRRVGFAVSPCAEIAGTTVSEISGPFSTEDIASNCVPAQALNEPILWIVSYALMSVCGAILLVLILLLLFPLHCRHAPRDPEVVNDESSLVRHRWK
From the text: Assay for BACE Inhibition by Measuring Cellular TMEM27 Cleavage:
The assay uses the principle of inhibition of human TMEM27 cleavage by endogenous cellular BACE2 in the Ins1e rat cell line and shedding from the cell surface into the culture medium, followed by detection in an ELISA assay. Inhibition of BACE2 prevents the cleavage and shedding in a dose-dependent manner.
The stable cell line “INS-TMEM27” represents an INS1e-derived cell line with inducible expression (using the TetOn system) of full-length hTMEM27 in a doxycycline-dependent manner. The cells are cultured throughout the experiment in RPMI1640+ Glutamax (Invitrogen) Penicillin/Streptomycin, 10% Fetal bovine serum, […], […], 100 micrograms/ml G418 and 100 microgram/ml hygromycin and are grown inadherent culture at 37° C. in a standard CO2 cell culture incubator.
INS-TMEM27 cells are seeded in 96-well plates. After 2 days in culture, BACE2 inhibitor is added in a range of concentrations as required by the assay and after a further two hours, doxycycline is added to a final concentration of 500 ng/ml. The cells are incubated for a further 46 hours and the supernatant harvested for detection of shed TMEM27.
An ELISA assay (using a pair of mouse anti-human-TMEM27 antibodies, raised against the extracellular domain of TMEM27) is used for detection of TMEM27 in the culture medium. An EC50 for BACE2 inhibition is calculated using the ELISA readout for each inhibitor concentration with standard curve-fitting software such as XLFit for the Excel spreadsheet program.

[2] = tested on: Aβ40; assay: Cellular Aβ-lowering assay; type: cell-based; details: HEK293 cells stably expressing human APP695, Aβ40 in supernatant by ELISA after 18-20 hrs; read-out: Cellular assay Abeta40 IC50
Method: Cellular Aβ-Lowering Assay:
Human HEK293 cells which are stably transfected with a vector expressing a cDNA of the human APP wt gene (APP695) were used to assess the potency of the compounds in a cellular assay. The cells were seeded in 96-well microtiter plates in cell culture medium (Iscove, plus 10% (v/v) fetal bovine serum, glutamine, penicillin/streptomycin) to about 80% confluence and the compounds were added at a 10× concentration in 1/10 volume of medium without FCS containing 8% DMSO (final concentration of DMSO was kept at 0.8% v/v). After 18-20 hrs incubation at 37° C. and 5% CO2 in a humidified incubator the culture supernatant was harvested for the determination of Aβ40 concentrations. 96well ELISA plates (e.g., Nunc MaxiSorb) were coated with monoclonal antibody which specifically recognize the C-terminal end of Aβ40 (Brockhaus et al., NeuroReport 9, 1481-1486; 1998). After blocking of non-specific binding sites with e.g. 1% BSA and washing, the culture supernatants were added in suitable dilutions together with a horseradish peroxidase-coupled Aβ detection antibody (e.g., antibody 4G8, Senetek, Maryland Heights, Mo.) and incubated for 5 to 7 hrs. Subsequently the wells of the microtiter plate were washed extensively with Tris-buffered saline containing 0.05% Tween 20 and the assay was developed with tetramethylbenzidine/H2O2 in citric acid buffer. After stopping the reaction with one volume 1 N H2SO4 the reaction was measured in an ELISA reader at 450 nm wavelength. The concentrations of Aβ in the culture supernatants were calculated from a standard curve obtained with known amounts of pure Aβ peptide.

SMILES	IC50 [1]	IC50 [2]
C[C@]1(c2cc(NC(=O)c3ncc(F)cc3F)ccc2F)N=C(N)COCC1(F)F [Example 32, (R)-N-(3-(3-amino-6,6-difluoro-5-methyl-2,5,6,7-tetrahydro-1,4-oxazepin-5-yl)-4-fluorophenyl)-3,5-difluoropicolinamide formate]	4.4 nM	4.5 nM
C[C@]1(c2cc(NC(=O)C3(C(F)(F)F)CC3)ccc2F)N=C(N)COCC1(F)F [Example 33, (R)-N-(3-(3-amino-6,6-difluoro-5-methyl-2,5,6,7-tetrahydro-1,4-oxazepin-5-yl)-4-fluorophenyl)-1-(trifluoromethyl)cyclopropanecarboxamide formate]	240 nM	90 nM
C[C@]1(c2cc(NC(=O)C3CC3(F)F)ccc2F)N=C(N)COCC1(F)F (stereo partly drawn) [Example 34, N-(3-((R)-3-amino-6,6-difluoro-5-methyl-2,5,6,7-tetrahydro-1,4-oxazepin-5-yl)-4-fluorophenyl)-2,2-difluorocyclopropanecarboxamide formate]	380 nM	76 nM
C[C@]1(c2cc(NC(=O)c3ccccn3)ccc2F)N=C(N)COCC1(F)F [Example 35, (R)-N-(3-(3-amino-6,6-difluoro-5-methyl-2,5,6,7-tetrahydro-1,4-oxazepin-5-yl)-4-fluorophenyl)picolinamide formate]	29 nM	14 nM
C[C@]1(c2cc(NC(=O)c3ncccc3Cl)ccc2F)N=C(N)COCC1(F)F [Example 36, (R)-N-(3-(3-amino-6,6-difluoro-5-methyl-2,5,6,7-tetrahydro-1,4-oxazepin-5-yl)-4-fluorophenyl)-3-chloropicolinamide formate]	8.4 nM	38 nM
C[C@]1(c2cc(NC(=O)c3ncccc3C(F)(F)F)ccc2F)N=C(N)COCC1(F)F [Example 37, (R)-N-(3-(3-amino-6,6-difluoro-5-methyl-2,5,6,7-tetrahydro-1,4-oxazepin-5-yl)-4-fluorophenyl)-3-(trifluoromethyl)picolinamide formate]	25 nM	54 nM
C[C@]1(c2cc(NC(=O)c3cnc(Cl)cn3)ccc2F)N=C(N)COCC1(F)F [Example 38, (R)-N-(3-(3-amino-6,6-difluoro-5-methyl-2,5,6,7-tetrahydro-1,4-oxazepin-5-yl)-4-fluorophenyl)-5-chloropyrazine-2-carboxamide formate]	170 nM	55 nM
C[C@]1(c2cc(NC(=O)c3ncc(Cl)cc3Cl)ccc2F)N=C(N)COCC1(F)F [Example 39, (R)-N-(3-(3-amino-6,6-difluoro-5-methyl-2,5,6,7-tetrahydro-1,4-oxazepin-5-yl)-4-fluorophenyl)-3,5-dichloropicolinamide formate]	3 nM	2.6 nM
C[C@]1(c2cc(NC(=O)c3ncc(F)cc3Cl)ccc2F)N=C(N)COCC1(F)F [Example 40, (R)-N-(3-(3-amino-6,6-difluoro-5-methyl-2,5,6,7-tetrahydro-1,4-oxazepin-5-yl)-4-fluorophenyl)-3-chloro-5-fluoropicolinamide formate]	6.2 nM	5.9 nM

Further lines, results first:

IC50 [1]	IC50 [2]	SMILES
3 nM	7.2 nM	Cn1cc(Cl)c(C(=O)Nc2ccc(F)c([C@@]3(C)N=C(N)COCC3(F)F)c2)n1 [Example 41, (R)-N-(3-(3-amino-6,6-difluoro-5-methyl-2,5,6,7-tetrahydro-1,4-oxazepin-5-yl)-4-fluorophenyl)-4-chloro-1-methyl-1H-pyrazole-3-carboxamide formate]
2.4 nM	7.4 nM	Cc1nc(C(=O)Nc2ccc(F)c([C@@]3(C)N=C(N)COCC3(F)F)c2)co1 [Example 42, (R)-N-(3-(3-amino-6,6-difluoro-5-methyl-2,5,6,7-tetrahydro-1,4-oxazepin-5-yl)-4-fluorophenyl)-2-methyloxazole-4-carboxamide formate]
4.7 nM	23 nM	Cn1ccc(C(=O)Nc2ccc(F)c([C@@]3(C)N=C(N)COCC3(F)F)c2)n1 [Example 43, (R)-N-(3-(3-amino-6,6-difluoro-5-methyl-2,5,6,7-tetrahydro-1,4-oxazepin-5-yl)-4-fluorophenyl)-1-methyl-1H-pyrazole-3-carboxamide formate]
1.2 nM	2.4 nM	C[C@]1(c2cc(NC(=O)c3ccn(C(F)F)n3)ccc2F)N=C(N)COCC1(F)F [Example 44, (R)-N-(3-(3-amino-6,6-difluoro-5-methyl-2,5,6,7-tetrahydro-1,4-oxazepin-5-yl)-4-fluorophenyl)-1-(difluoromethyl)-1H-pyrazole-3-carboxamide formate]
6.5 nM	1.7 nM	C[C@]1(c2cc(NC(=O)c3ncc(Cl)cn3)ccc2F)N=C(N)COCC1(F)F [Example 46, 5-Chloro-pyrimidine-2-carboxylic acid [3-((R)-3-amino-6,6-difluoro-5-methyl-2,5,6,7-tetrahydro-[1,4]oxazepin-5-yl)-4-fluoro-phenyl]-amide]
46 nM	58 nM	CC1(C)OCC[C@@](C)(c2cc(NC(=O)c3ccc(Cl)cn3)ccc2F)N=C1N [Example 47, 5-Chloro-pyridine-2-carboxylic acid [3-((S)-3-amino-2,2,5-trimethyl-2,5,6,7-tetrahydro-[1,4]oxazepin-5-yl)-4-fluoro-phenyl]-amide]
88 nM	1 nM	C[C@]1(c2cc(NC(=O)c3ccc(OC(F)F)cn3)ccc2F)N=C(N)COCC1(F)F [Example 48, (R)-N-(3-(3-amino-6,6-difluoro-5-methyl-2,5,6,7-tetrahydro-1,4-oxazepin-5-yl)-4-fluorophenyl)-5-(difluoromethoxy)picolinamide formate]
1110 nM	22 nM	C[C@]1(c2cc(NC(=O)c3ccc(OCC(F)(F)F)cn3)ccc2F)N=C(N)COCC1(F)F [Example 49, (R)-N-(3-(3-amino-6,6-difluoro-5-methyl-2,5,6,7-tetrahydro-1,4-oxazepin-5-yl)-4-fluorophenyl)-5-(2,2,2-trifluoroethoxy)picolinamide formate]
71 nM	160 nM	CC1(C)OCC[C@@](C)(c2cc(NC(=O)c3ccc(F)cn3)ccc2F)N=C1N [Example 50, 5-Fluoro-pyridine-2-carboxylic acid [3-((S)-3-amino-2,2,5-trimethyl-2,5,6,7-tetrahydro-[1,4]oxazepin-5-yl)-4-fluoro-phenyl]-amide]
120 nM	49 nM	C[C@@]1(c2cc(NC(=O)c3ncc(C(F)(F)F)cc3Cl)ccc2F)COCCC(N)=N1 [Example 52, 3-Chloro-5-trifluoromethyl-pyridine-2-carboxylic acid [3-((R)-5-amino-3-methyl-2,3,6,7-tetrahydro-[1,4]oxazepin-3-yl)-4-fluoro-phenyl]-amide]
41 nM	10 nM	C[C@@]1(c2cc(NC(=O)c3ccc(C#N)cn3)ccc2F)COCCC(N)=N1 [Example 53, 5-Cyano-pyridine-2-carboxylic acid [3-((R)-5-amino-3-methyl-2,3,6,7-tetrahydro-[1,4]oxazepin-3-yl)-4-fluoro-phenyl]-amide]
